Source: BindingDB's records for patent US11472811 (BEIGENE, LTD., 2022)

Target: Adenosine receptor A2a (Homo sapiens, UniProt P29274)
Assay: Luciferase Reporter Assay
Procedure: HEK293-A2AR-luc2p/CRE/Hygro cells were seeded at a density of 5,000 cells/well in DMEM with 1% FBS and 1 U/mL adenosine deaminase (ADA) (Sigma). After 18 h, the cells were treated with 3 nM CGS21680 plus a series dilution of A2AR antagonist, the compounds disclosed herein at the concentration of 0.1 10000 nM, prepared in DMEM with 1% FBS. After 5 h incubation, the luciferase activity in cells were measured using the Bright-Glo Luciferase Assay System (Promega) according to manufacturer's instructions. The luminescence signal was measured using a PHERAstar FS plate reader (BMG Labtech). […] Maximal luminescence intensity was determined in the presence of 3 nM CGS21680 and was set as 100%. The IC50 value was calculated from a dose dependent inhibition curve across the range of compound concentrations.

Chain of Adenosine receptor A2a (P29274 whole entry): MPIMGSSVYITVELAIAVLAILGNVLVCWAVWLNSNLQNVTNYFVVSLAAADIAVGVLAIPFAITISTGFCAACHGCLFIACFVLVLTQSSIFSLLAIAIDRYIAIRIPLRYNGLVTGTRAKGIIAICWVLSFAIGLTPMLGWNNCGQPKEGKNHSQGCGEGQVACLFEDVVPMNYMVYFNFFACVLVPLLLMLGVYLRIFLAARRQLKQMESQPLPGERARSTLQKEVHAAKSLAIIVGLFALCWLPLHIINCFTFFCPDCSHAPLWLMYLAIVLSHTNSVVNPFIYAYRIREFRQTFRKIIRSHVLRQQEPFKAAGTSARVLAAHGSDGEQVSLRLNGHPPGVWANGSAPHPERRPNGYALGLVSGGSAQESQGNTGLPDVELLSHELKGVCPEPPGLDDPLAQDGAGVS

IC50: 194 nM
SMILES: C[C@@](C(=O)O)(c1ccccc1)n1ncc2c1nc(N)n1nc(-c3ccco3)nc21 [US11472811, Example Intermediate-Ia]
